Experimental data reported in patent US20050014182A1, “Use of calpain for identifying compounds that modulate pain” (Aventis Pharma Deutschland GmbH, priority 2003, published 2005).
“Also recorded” adds a separate entry of the source. Like-named read-outs stand apart in the source and are kept apart here. Where a SMILES comes first, the peptide text is derived from it. The star is where a group is joined. Cbz = O=C(OCc1ccccc1)*

How the values were obtained:
calpain [1] = details: described in literature, cited from earlier work
[2] = tested on: zymosan induced paw oedema; assay: Zymosan induced paw inflammation model (paw oedema); format: in vivo, rat; details: for paw oedema (AUC of paw volume increase 0-8 h) versus control: 25 mg/kg i.p., 1.25 mg zymosan intraplantar, 25 mg/kg
Protocol: Unilateral hind paw inflammation and paw oedema was induced by subcutaneous injection of 1.25 mg zymosan (Sigma, München, Germany), suspended in 100 μl phosphate buffered saline (12.5 mg/ml), into the midplantar region of the right hind paw. After 24, 48 or 96 h animals were anaesthetized and killed by cardiac puncture. Spinal cords were excised, directly frozen in liquid nitrogen and then kept at −80° C. until further analysis. Paw oedema was induced by zymosan injection as described above. The paw volume was measured before and 0.25, 0.5, 1, 2, 4, 6, 8 and 24 h after zymosan injection using a plethysmometer (Ugo Basile, Varese, Italy). Six rats per group were used. At each time point five measurements of the paw volume were taken. The average of these five measurements was used for further analysis. […] Six animals were used for each treatment group. (Controls received 1 ml of vehicle.) Treatments were randomly allocated to animals and the observers were unaware of treatment allocations. The percent relative difference in paw withdrawal latency (ΔPWL) between the zymosan treated right and the untreated left hind paw, calculated as: ΔPWL=(right−left)/left×100, was used to asses antinociceptive effects. To evaluate anti-inflammatory effects, the relative difference between the paw volume before and after zymosan injection (ΔPV) was used. The areas under the ΔPWL versus time curves (AUCΔPWL) as well as the areas under the ΔPV versus time curves (AUCΔPV) were calculated using the linear trapezoidal rule. Statistical evaluation was done by SPSS 9.02 for Windows. Effects of study medications were assessed by submitting the AUCΔPV from 0-8 h to univariate analysis of variance (ANOVA) with subsequent t-tests employing a Bonferroni […]-correction for multiple comparisons. Statistical significance of ΔPWL was calculated by unpaired Student's t-test (zymosan-treated rats versus control rats). □ was set at 0.05.

[3] = following systemic administration; cited from earlier work
m-calpain = assay: Calpain protein expression in spinal cord after zymosan treatment (anti-m-calpain immunohistochemistry); format: in vivo, rat; details: 96 h after zymosan, pre-treatment with inhibitor
Protocol: (§1) Unilateral hind paw inflammation and paw oedema was induced by subcutaneous injection of 1.25 mg zymosan (Sigma, München, Germany), suspended in 100 μl phosphate buffered saline (12.5 mg/ml), into the midplantar region of the right hind paw. After 24, 48 or 96 h animals were anaesthetized and killed by cardiac puncture. Spinal cords were excised, directly frozen in liquid nitrogen and then kept at −80° C. until further analysis.
(§2) Calpain inhibitor III (MDL 28170) (Calbiochem, Schwalbach/Ts., Germany) was dissolved in PEG 400/DMSO (1:1) at a concentration of 10 mg/ml. Animals received calpain inhibitor III either as a 12.5 mg/kg or a 25 mg/kg intraperitoneal (i.p.) bolus injection 20 min prior to the intraplantar injection of zymosan. Six animals were used for each treatment group. (Controls received 1 ml of vehicle.) Treatments were randomly allocated to animals and the observers were unaware of treatment allocations.
For immunohistochemical staining, the lumbal spinal cord segments were excised, directly frozen in liquid nitrogen and stored at −80° C. Fresh-frozen tissue sections (14 μm) were cut in a cryostat, mounted on gelatin-subbed slides, and fixed for 10 min in 4% paraformaldehyd in PBS (pH 7.4). Slides were washed with three 10-min washes in PBS and treated for 15 min with PBS containing 0.1% Triton-X 100. […]

calpain [4] = assay: Calpain activity of spinal cord extracts of zymosan treated rats (fluorometric cleavage of Ac-LLY-AFC); format: in vivo, rat
Protocol: as §1, §2

[5] = tested on: neurofilament light chain (NF-L); assay: Neurofilament light chain (NF-L) degradation in spinal cord after zymosan treatment (immunohistochemistry); format: in vivo, rat; details: for NF-L immunofluorescence in spinal cord slices: 96 h after zymosan, pre-treatment with inhibitor; for zymosan induced neurofilament degradation: rats, 12.5 mg/kg and 25 mg/kg i.p.
Protocol: as §1, §2
For immunohistochemical staining, the lumbal spinal cord segments were excised, directly frozen in liquid nitrogen and stored at −80° C. Fresh-frozen tissue sections (14 μm) were cut in a cryostat, mounted on gelatin-subbed slides, and fixed for 10 min in 4% paraformaldehyd in PBS (pH 7.4). Slides were washed with three 10-min washes in PBS and treated for 15 min with PBS containing 0.1% Triton-X 100. The sections were then blocked in 3% BSA in PBS for 1 h to reduce nonspecific binding and then incubated with pimary monoclonal antibody, anti-NFL (1:100; Sigma) and anti-m-calpain (1:50; Affinity BioReagents) for 1 h at 37° C. NF-L and m-calpain were flourescently labelled with a 1 h incubation at 37° C. with Cy3-conjugated secondary antibody (1:600; Sigma). Slides were washed with three 10-min washes in PBS after each incubation. Primary and secondary antibody incubations were performed in PBS containing 1% BSA. Slides were mounted with SlowFade Light Antifade mounting media according to manufacturer's protocol.
Immunohistochemistry was applied to determine the protein levels of neurofilament-L and calpain in rat spinal cord slices after zymosan treatment with and without additional administration of calpain inhibitor III.

[6] = tested on: zymosan induced thermal hyperalgesia; assay: Zymosan induced thermal hyperalgesia (paw withdrawal latency, Hargreaves); format: in vivo, rat; details: for thermal hyperalgesia (paw withdrawal latency): rats, 25 mg/kg i.p., 1.25 mg zymosan intraplantar, 25 mg/kg
Protocol: Unilateral hind paw inflammation and paw oedema was induced by subcutaneous injection of 1.25 mg zymosan (Sigma, München, Germany), suspended in 100 μl phosphate buffered saline (12.5 mg/ml), into the midplantar region of the right hind paw. After 24, 48 or 96 h animals were anaesthetized and killed by cardiac puncture. Spinal cords were excised, directly frozen in liquid nitrogen and then kept at −80° C. until further analysis. Nociceptive paw withdrawal latency to radial heat was assessed according to Hargreaves (Hargreaves et al., 1988), using a commercially available special device (Ugo Basile, Varese, Italy). Rats were placed in transparent plastic chambers (18×29×12.5 cm) on a metal grid (5×5 mm). The heat source consisting of a high projector lamp bulb was focused on the mid-plantar surface of the hind paw. The bulb and an electronic timer were simultaneously activated at the test start, and both were automatically inactivated when a photocell detected a paw withdrawal in response to the heat. Paw withdrawal latencies (PWL) of the right and left paw (treated and untreated paw) were recorded before and every 60 min up to 8 h and 24 h after zymosan injection. […] Six animals were used for each treatment group. (Controls received 1 ml of vehicle.) Treatments were randomly allocated to animals and the observers were unaware of treatment allocations. The percent relative difference in paw withdrawal latency (ΔPWL) between the zymosan treated right and the untreated left hind paw, calculated as: ΔPWL=(right−left)/left×100, was used to asses antinociceptive effects. […] The areas under the ΔPWL versus time curves (AUCΔPWL) as well as the areas under the ΔPV versus time curves (AUCΔPV) were calculated using the linear trapezoidal rule. […] Effects of study medications were assessed by submitting the AUCΔPV from 0-8 h to univariate analysis of variance (ANOVA) with subsequent t-tests employing a Bonferroni […]-correction for multiple comparisons. Statistical significance of ΔPWL was calculated by unpaired Student's t-test (zymosan-treated rats versus control rats). □ was set at 0.05.

calpain [7] = assay: Calpain inhibition (statement, no method given); format: biochemical; details: statement without data
[8] = listed as Calpain inhibitor III
[9] = tested as described for calpain inhibitor III

Compound | calpain inhibition (calpain I and II) (calpain [1]) | paw oedema (AUC of paw volume increase 0-8 h) versus control ([2]; rats) | paw oedema (AUC of paw volume increase 0-8 h) versus control ([2]; rats, listed as Calpain inhibitor III) | paw inflammation (paw volume increase) ([2]; rats, doses of 12.5 and 25 mg/kg i.p.) | blood-brain barrier penetration [3] | calpain (m-calpain) protein expression in spinal cord (m-calpain) | calpain (m-calpain) protein expression in spinal cord (m-calpain; listed as MDL-28170) | zymosan-induced protease (calpain) activation in the spinal cord (calpain [4]; rats, 25 mg/kg i.p. 20 min prior to zymosan) | calpain activity of spinal cord extracts (calpain [4]; zymosan treated rats, calpain inhibitor III 12.5 mg/kg or 25 mg/kg i.p. before zymosan (FIG. 2 legend)) | NF-L immunofluorescence in spinal cord slices [5] | NF-L immunofluorescence in spinal cord slices [5, 8] | zymosan induced neurofilament degradation [5] | zymosan induced neurofilament degradation ([5]; listed as MDL 28170) | thermal hyperalgesia (paw withdrawal latency) [6] | thermal hyperalgesia (paw withdrawal latency) [6, 8] | calpain inhibition (calpain I and II) (calpain [1]; listed as MDL 28170) | effects on inflammation [2, 9] | calpain inhibition (calpain [7]) | effects on nociception [6, 9]
COc1ccc2c(c1)c(CC(=O)O)c(C)n2C(=O)c1ccc(Cl)cc1 [indomethacin] | calpain inhibiting activity |  |  |  |  |  |  |  |  |  |  |  |  |  |  |  |  |  | 
CC(C)[C@H](NC(=O)OCc1ccccc1)C(=O)N[C@H](C=O)Cc1ccccc1 [calpain inhibitor III, Carbobenzoxy-valinyl-phenylalaninal] (Cbz-Val-Phe-aldehyde) | potent, selective and cell-permeable inhibitor of calpain 1 and II | significantly reduced the paw edema; also recorded: statistically significant differences | significantly reduces the paw oedema | inhibited paw inflammation dose-dependently; also recorded: attenuates the development of zymosan induced paw inflammation | rapidly penetrates the blood-brain barrier | not altered | not affected | significantly inhibited | reduced | immunofluorescence levels comparable to control slices of untreated rats | reduced the loss of NF-L | attenuated the zymosan induced neurofilament degradation | blocked the degradation of neurofilament protein | antinociceptive responses; also recorded: significantly higher paw withdrawal latency; also recorded: attenuates | significantly reduces thermal hyperalgesia | potent, specific calpain inhibitor |  |  | 
CC(C)[C@H](NC(=O)OCc1ccccc1)C(=O)N[C@H](C=O)Cc1ccccc1 [MDL-102935] (Cbz-Val-Phe-aldehyde) |  |  |  |  |  |  |  |  |  |  |  |  |  |  |  |  | the same as those of MDL-28170 | inhibitor of calpain | the same as those of MDL-28170
